From patent publication US10870638B2, “Pyridazinone compound or its salt, and herbicide containing it” (ISHIHARA SANGYO KAISHA, LTD., priority 2016, dated 2020)

Assays:
Assay type in all cases: in vivo
Settings in all cases: active ingredient amount 31 g/ha, 14th day after application
[1] = test system: crabgrass (Digitaris sanquinalis L.); experiment: Test Example 2: soil application on the day after sowing, growth inhibition rate on 14th day
How it was run: (§1)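 Pre-emergence soil spray on upland soil the day after sowing; wettable powder or emulsifiable concentrate diluted in water at 1,000 L/ha, dosed to prescribed active-ingredient amounts. Visual growth inhibition scored 14 days after application, 0 (untreated-equivalent) to 100 (complete kill).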

[2] = test system: corn (Zea mays L.); experiment: as above
How it was run: as §1

[3] = test system: rice (Oryza sativa L.); experiment: as above
How it was run: as §1

[4] = test system: redroot pigweed (Amaranthus retroflexus L.); experiment: as above
How it was run: as §1

[5] = test system: barnyardgrass (Echinochloa crus-qalli L.); experiment: as above
How it was run: as §1

[6] = test system: wheat (Triticum aestivum L.); experiment: as above
How it was run: as §1

[7] = test system: soybean (Glycine max Merr.); experiment: as above
How it was run: as §1

[8] = test system: prickly sida (Sida spinosa L.); experiment: as above
How it was run: as §1

[9] = test system: velvetleaf (Abutilon theophrasti MEDIC.); experiment: as above
How it was run: as §1

[10] = test system: green foxtail (Setaria viridis L.); experiment: as above
How it was run: as §1

[11] = test system: crabgrass (Digitaria sanquinalis L.); experiment: Test Example 1: foliar treatment, growth inhibition rate on 14th day
How it was run: (§2)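 Visual 0–100% inhibition scoring (100 = complete kill) at 14 days after foliar treatment of soil-grown seedlings at species-specific leaf stages, with the compound sprayed as a wettable powder or emulsifiable concentrate dilution.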

[12] = test system: corn (Zea mays L.); experiment: as above
How it was run: as §2

[13] = test system: rice (Oryza sativa L.); experiment: as above
How it was run: (§3)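 Plants in upland soil were sprayed on the foliage at early leaf stages (wild oat 0.4–1.2, rice 0.2–2.7, green foxtail 0.5–3.2, soybean primary leaf) with wettable powder or emulsifiable concentrate formulations. Spray volume was 1,000 L/ha water containing 0.1 vol% spreader, at prescribed active-ingredient rates. Growth inhibition (0 = untreated, 100 = complete kill) was scored visually on day 14.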

[14] = test system: redroot pigweed (Amaranthus retroflexus L.); experiment: as above
How it was run: as §2

[15] = test system: italian ryegrass (Lolium multiflorum Lam.); experiment: as above
How it was run: as §2

[16] = test system: barnyardgrass (Echinochloa crus-qalli L.); experiment: as above
How it was run: as §2

[17] = test system: wheat (Triticum aestivum L.); experiment: as above
How it was run: as §2

[18] = test system: soybean (Glycine max Merr.); experiment: as above
How it was run: as §3

[19] = test system: wild oat (Avena fatua L.); experiment: as above
How it was run: as §3

[20] = test system: green foxtail (Setaria viridis L.); experiment: as above
How it was run: as §3

[21] = visual, 0 = non-treated, 100 = complete kill

Row | SMILES | Growth inhibition rate (%) Crabgrass [1] | Growth inhibition rate (%) Corn [2] | Growth inhibition rate (%) Rice [3] | Growth inhibition rate (%) Redroot pigweed [4] | Growth inhibition rate (%) Barnyardgrass [5] | Growth inhibition rate (%) Wheat [6] | Growth inhibition rate (%) Soybean [7] | Growth inhibition rate (%) Prickly sida [8] | Growth inhibition rate (%) Velvetleaf [9] | Growth inhibition rate (%) Green foxtail [10] | Growth inhibition rate (%) Crabgrass [11] | Growth inhibition rate (%) Corn [12] | Growth inhibition rate (%) Rice [13] | Growth inhibition rate (%) Redroot pigweed [14] | Growth inhibition rate (%) Italian ryegrass [15] | Growth inhibition rate (%) Barnyardgrass [16] | Growth inhibition rate (%) Wheat [17] | Growth inhibition rate (%) Soybean [18] | Growth inhibition rate (%) Wild oat [19] | Growth inhibition rate (%) Green foxtail [20] | other results
1 | Cc1ccc(Oc2nc3ccc(Cl)cc3o2)cc1-c1c(O)cnn(C)c1=O [Compound 2-163] | 98% | 15% | 20% | 0% | 98% | 20% | 0% | 0% | 0% | 99% | 95% | 80% | 35% | 0% | 88% | 100% | 10% | 35% | 75% | 100% | –
2 | Cc1ccc(Oc2cnc(C(F)(F)F)cn2)cc1-c1c(O)c(C)nn(C)c1=O [Compound 2-194] | 83% | 40% | 30% | 0% | 95% | 0% | 0% | 0% | 0% | 99% | 90% | 60% | 0% | 0% | 35% | 85% | 0% | 10% | 10% | 90% | –
3 | CCOC(=O)C(=O)Oc1c(C)nn(C)c(=O)c1-c1cc(Oc2cnc3cc(Cl)ccc3n2)ccc1C [Compound 3-79] | 95% | 0% | 0% | 0% | 100% | 0% | 0% | 0% | 0% | 100% | – | – | – | – | – | – | – | – | – | – | Growth inhibition rate (%) Crabgrass [11, 21]: 98%; Growth inhibition rate (%) Corn [12, 21]: 50%; Growth inhibition rate (%) Rice [13, 21]: 99%; Growth inhibition rate (%) Redroot pigweed [14, 21]: 0%; Growth inhibition rate (%) Italian ryegrass [15, 21]: 99%; Growth inhibition rate (%) Barnyardgrass [16, 21]: 100%; Growth inhibition rate (%) Wheat [17, 21]: 93%; Growth inhibition rate (%) Soybean [18, 21]: 30%; Growth inhibition rate (%) Wild oat [19, 21]: 98%; Growth inhibition rate (%) Green foxtail [20, 21]: 100%
4 | Cc1c(Oc2ncc(C(F)(F)F)cc2Cl)cccc1-c1c(O)cnn(CC2CC2)c1=O [1-166] | 95% | 0% | 0% | 0% | 80% | 0% | 0% | 0% | 0% | 80% | 99% | 98% | 10% | 0% | 30% | 95% | 10% | 15% | 93% | 100% | –
5 | CC(=O)Oc1cnn(C)c(=O)c1-c1cc(Oc2nc3ccc(Cl)cc3o2)ccc1C [Compound 2-164] | 98% | 0% | 0% | 0% | 50% | 0% | 0% | 0% | 0% | 90% | 100% | 90% | 83% | 0% | 95% | 100% | 10% | 40% | 90% | 100% | –
6 | CCc1ccc(Oc2nc3cc(Cl)ccc3o2)cc1-c1c(O)c(C)nn(C)c1=O [Compound 2-161] | 0% | 0% | 0% | 0% | 98% | 0% | 0% | 0% | 0% | 0% | 83% | 90% | 99% | 40% | 99% | 100% | 85% | 0% | 99% | 100% | –
7 | CC(=O)Oc1c(C)nn(C)c(=O)c1-c1cc(Oc2ncc(C(F)(F)F)cc2Cl)ccc1C1CC1 [1-150] | 98% | 0% | 0% | 0% | 99% | 0% | 0% | 0% | 0% | 98% | 100% | 95% | 88% | 0% | 100% | 100% | 99% | 0% | 100% | 100% | –
8 | CCc1nn(C)c(=O)c(-c2cc(Oc3ncc(C(F)(F)F)cc3Cl)ccc2C)c1O [1-98] | 20% | 0% | 35% | 0% | 95% | 0% | 0% | 0% | 0% | 30% | 30% | 80% | 0% | 0% | 78% | 88% | 20% | 10% | 65% | 60% | –
9 | CC(=O)Oc1cnn(C)c(=O)c1-c1cc(Oc2ncc(C(F)(F)F)cc2Cl)ccc1C [1-171] | 100% | 0% | 0% | 0% | 100% | 0% | 0% | 0% | 0% | 100% | 100% | 100% | 85% | 0% | 100% | 100% | 83% | 0% | 100% | 100% | –
